{"source": "patent US10960005B2", "about": "“Treatment of relapsed and/or refractory solid tumors and non-hodgkin's lymphomas” (CELGENE QUANTICEL RESEARCH, INC., priority 2016, dated 2021)", "key": {"[1]": {"tested_on": "LNCaP cells", "test": "LNCaP cell proliferation with rapamycin", "assay_type": "cell-based, human", "conditions": "100 nM Compound A + 100 nM rapamycin vs rapamycin alone; 90 hours"}, "[2]": {"test": "Pharmacokinetics after single IV and oral dose, Cynomolgus monkeys", "assay_type": "in vivo", "conditions": "Monkey, male", "description": "AUClast=area under the plasma concentration-time curve from time zero to time of last measurable concentration; Cmax=maximum plasma concentration; F=oral bioavailability; hr=hour, PK=pharmacokinetic; SD=standard deviation; t1/2 z=apparent half-life of the terminal phase of the concentration-time curve; tmax=time of Cmax. In mouse, PK parameters were determined using composite plasma samples obtained from n=3animals/time point. In other species, PK parameters are from n=3 animals and values shown are mean and SD (in parentheses)."}, "[3]": {"test": "4-week toxicity study with 4-week recovery in mice", "assay_type": "in vivo", "conditions": "for AUC0-24 / Cmax: Mice"}, "[4]": {"conditions": "5 mg base/kg/dose QD×5/week, females"}, "[5]": {"conditions": "5 mg base/kg/dose QD×5/week, males"}, "[6]": {"conditions": "25 mg base/kg/dose QOD×3/week, females"}, "[7]": {"conditions": "45 mg base/kg/dose QD×5/week, females"}, "[8]": {"conditions": "45 mg base/kg/dose QD×5/week, males"}, "[9]": {"conditions": "Day 1, 15 mg base/kg/dose oral, 5 days on/2 days off, F"}, "[10]": {"conditions": "Day 26, 5 mg base/kg/dose oral, 5 days on/2 days off, F"}, "[11]": {"conditions": "Day 26, 5 mg base/kg/dose oral, 5 days on/2 days off, M"}, "[12]": {"conditions": "Day 26, 15 mg base/kg/dose oral, 5 days on/2 days off, M"}, "[13]": {"conditions": "Day 26, 25 mg base/kg/dose oral, QOD × 3/week, F"}, "[14]": {"conditions": "Day 26, 25 mg base/kg/dose oral, QOD × 3/week, M"}, "[15]": {"conditions": "Day 26, 45 mg base/kg/dose oral, 5 days on/2 days off, F"}, "[16]": {"conditions": "Day 26, 45 mg base/kg/dose oral, 5 days on/2 days off, M"}}, "data": [{"compound": "COc1ccc(-c2c(-c3ccc(C#N)c(F)c3)nc(N3CCC(N)CC3)n(C)c2=O)cc1F", "note": "[Compound A]", "values": [{"measurement": "LNCaP cell proliferation", "setting": "[1]", "result": "greater inhibition of LNCap cell proliferaton"}, {"measurement": "AUC∞", "setting": "[2]; single IV 1 mg base/kg", "result": 983, "unit": "ng·h/mL"}, {"measurement": "CL", "setting": "[2]; single IV 1 mg base/kg", "result": 18, "unit": "mL/min/kg"}, {"measurement": "Vss", "setting": "[2]; single IV 1 mg base/kg", "result": 17.119, "unit": "L/kg"}, {"measurement": "t1/2,z", "setting": "[2]; single IV 1 mg base/kg", "result": 12.0, "unit": "h"}, {"measurement": "% F", "setting": "[2]; single oral 5 mg base/kg", "result": 82, "unit": "%"}, {"measurement": "AUClast", "setting": "[2]; single oral 5 mg base/kg", "result": 3618, "unit": "ng·h/mL"}, {"measurement": "Cmax", "setting": "[2]; single oral 5 mg base/kg", "result": 187, "unit": "ng/mL"}, {"measurement": "t1/2,z", "setting": "[2]; single oral 5 mg base/kg", "result": 12.9, "unit": "h"}, {"measurement": "tmax", "setting": "[2]; single oral 5 mg base/kg", "result": 6.0, "unit": "h"}, {"measurement": "mean steady state AUC0-24", "setting": "[3]; [4]", "result": "2,410 ng·hr/mL"}, {"measurement": "mean steady state Cmax", "setting": "[3]; [4]", "result": 276, "unit": "ng/mL"}, {"measurement": "mean steady state AUC0-24", "setting": "[3]; [5]", "result": "2,010 ng·hr/mL"}, {"measurement": "mean steady state Cmax", "setting": "[3]; [5]", "result": 276, "unit": "ng/mL"}, {"measurement": "mean steady state AUC0-24", "setting": "[3]; [6]", "result": "17,500 ng·hr/mL"}, {"measurement": "mean steady state Cmax", "setting": "[3]; [6]", "result": "1,740 ng/mL"}, {"measurement": "mean steady state Cmax", "setting": "[3]; 25 mg base/kg/dose QOD×3/week, males", "result": "1,450 ng/mL"}, {"measurement": "animals sacrificed in moribund condition", "setting": "[3]; 45 mg base/kg/dose QD×5/week, 4 males and 1 female, TK subgroup", "result": "Five"}, {"measurement": "mean steady state AUC0-24", "setting": "[3]; [7]", "result": "26,500 ng·hr/mL"}, {"measurement": "mean steady state Cmax", "setting": "[3]; [7]", "result": "2,130 ng/mL"}, {"measurement": "mean steady state AUC0-24", "setting": "[3]; [8]", "result": "29,000 ng·hr/mL"}, {"measurement": "mean steady state Cmax", "setting": "[3]; [8]", "result": "2,620 ng/mL"}, {"measurement": "AUC0-24", "setting": "[3]; Day 1, 5 mg base/kg/dose oral, 5 days on/2 days off, F", "result": 1500, "unit": "ng·h/mL"}, {"measurement": "Cmax", "setting": "[3]; Day 1, 5 mg base/kg/dose oral, 5 days on/2 days off, M", "result": 230, "unit": "ng/mL"}, {"measurement": "AUC0-24", "setting": "[3]; [9]", "result": 9680, "unit": "ng·h/mL"}, {"measurement": "Cmax", "setting": "[3]; [9]", "result": 850, "unit": "ng/mL"}, {"measurement": "AUC0-24", "setting": "[3]; Day 1, 15 mg base/kg/dose oral, 5 days on/2 days off, M", "result": 13000, "unit": "ng·h/mL"}, {"measurement": "AUC0-24", "setting": "[3]; [10]", "result": 2410, "unit": "ng·h/mL"}, {"measurement": "Cmax", "setting": "[3]; [10]", "result": 276, "unit": "ng/mL"}, {"measurement": "AUC0-24", "setting": "[3]; [11]", "result": 2010, "unit": "ng·h/mL"}, {"measurement": "Cmax", "setting": "[3]; [11]", "result": 275, "unit": "ng/mL"}, {"measurement": "AUC0-24", "setting": "[3]; [12]", "result": 7960, "unit": "ng·h/mL"}, {"measurement": "Cmax", "setting": "[3]; [12]", "result": 628, "unit": "ng/mL"}, {"measurement": "AUC0-24", "setting": "[3]; [13]", "result": 17500, "unit": "ng·h/mL"}, {"measurement": "Cmax", "setting": "[3]; [13]", "result": 1740, "unit": "ng/mL"}, {"measurement": "AUC0-24", "setting": "[3]; [14]", "result": 17800, "unit": "ng·h/mL"}, {"measurement": "Cmax", "setting": "[3]; [14]", "result": 1450, "unit": "ng/mL"}, {"measurement": "AUC0-24", "setting": "[3]; [15]", "result": 26500, "unit": "ng·h/mL"}, {"measurement": "Cmax", "setting": "[3]; [15]", "result": 2130, "unit": "ng/mL"}, {"measurement": "AUC0-24", "setting": "[3]; [16]", "result": 29000, "unit": "ng·h/mL"}, {"measurement": "Cmax", "setting": "[3]; [16]", "result": 2620, "unit": "ng/mL"}, {"measurement": "STD10", "setting": "[3]; QD ×5/week schedule", "result": "≥ 45", "unit": "mg base/kg/dose"}]}]}
